The nature of series [1]: Chemical stability of amorphous solid dispersions (HPLC: LCAP, total impurities) through processing and on storage. The series is classed as physicochemical. The following applies: all storage conditions. How it is done: The chemical and physical stability of AMG 397 50% drug load ASDs generated by spray drying from THF was monitored over 4 weeks under accelerated conditions. Chemical stability was measured by HPLC and physical stability by XRPD, DSC and TGA. Samples were stored at 40° C./75% RH open, 40° C./75% RH closed, 25° C./60% RH closed, and 5° C. closed. All samples were tested after storage for 4 weeks except for the 40° C./75% RH open condition that was also tested at weeks 1 and 2. The THF ASD samples had significant degradation at TO due to the use of THF as the spray solvent. […] Unlike the amorphous DS, the ASD samples were stable when stored at 5° C. for 4-weeks.
Two further amorphous solid dispersions (ASD) were therefore prepared by spray-drying using DCM as the solvent in place of THF. Soluplus was used to prepare both these dispersions due to its improved stability over HPMC-AS ASDs generated from THF. Two drug loads were investigated, 25% and 50%.
The chemical stability of AMG 397 Soluplus ASDs generated by spray drying using DCM was monitored during each processing step to ensure that no degradation occurred during spray-drying or secondary drying. Samples were also stored for 4 weeks under the following conditions: 5° C. closed, 25° C. closed, 25°,C/60% RH closed, 25° C./60% RH open, 40° C./75% RH open and 40° C./75% RH closed. […]

Series [2] is described as follows: Moisture sorption profile (DVS). The class given is physicochemical. The note with it: by 95% RH; listed as amorphous AMG 397. How it is done:
Moisture Sorption: Moisture sorption data was collected using a Surface Measurement Systems DVSAdvantage instrument. Equilibrium criteria were set at ±0.001% weight change in 10 minutes with a maximum equilibrium time of 380 minutes.
Moisture Sorption: Moisture sorption data was collected using a Surface Measurement Systems DVSAdvantage instrument. Equilibrium criteria were set at ±0.001% weight change in 10 minutes with a maximum equilibrium time of 360 minutes.

For the compound `CO[C@]1(CN2CCN3CCCC[C@@H]3C2)/C=C/C[C@H](C)[C@@H](C)S(=O)(=O)NC(=O)c2ccc3c(c2)N(C[C@@H]2CC[C@H]21)C[C@@]1(CCCc2cc(Cl)ccc21)CO3` [AMG 397 Amorphous], the “Change of total impurities at 4-weeks” value in series [1] is listed as “Increases in total impurities”. Besides, in series [2], the “Moisture sorption weight gain” value is roughly 6.4%.

The values are drawn from patent US12643913B2, “Mcl-1 inhibitor formulations” (AMGEN INC., priority 2020, dated 2026).
